Reference: US20070135383A1, “Phospholipase inhibitors, including multi-valent phospholipase inhibitors, and use thereof, including as lumen-localized phospholipase inhibitors” (priority 2005, published 2007)

Assay: Bioavailability study, IV vs oral (Example 13)
Format: in vivo, male CD-1 mice
Conditions: male, CD-1, mouse, plasma; oral ~30 mg/kg vs IV ~3 mg/kg
Procedure: Bioavailability was determined for Compound 5-24 (ILY-V-24) as follows. Generally, the bioavailability was calculated by comparing a timecourse of the concentration of the test compound in the serum of mice after an intravenous (IV) dosing, versus the timecourse of the concentration following an oral dosing of the test compound. The IV dose was ˜3 mg/kg, the oral dose was ˜30 mg/kg.
Oral Formulation. The oral formulation was prepared as follows. To sterile flask, 90 ml of sterile Milli-Q water was added. 9 ml of PEG-400 was added (final concentration of 9%). 50 ul of Tween-80 was added (final concentration of 0.05%). 0.9 g of CMC was weighed and added (final concentration of 0.9% w/v). […]
Study Design. […] On study day 0, all the animals were weighed, dosages were calculated and the animals were dosed by oral route (PO) or (IV) as outlined below in Table 5. […]
Calculations. Bioavailability was calculated as follows. Individual doses were calculated based on an average of body weights taken on the day of dosing. Serum concentrations of test compound, as well as the actual concentration of dosing solutions, were measured using 2-dimensional Mass Spectrophotometry after Liquid Chromatography (LC MS/MS). […]

Cc1c(C(=O)C(N)=O)c2c(OCC(=O)O)cccc2n1CCCCCCCCSCCCCCCCCSCCCCCCCCn1c(C)c(C(=O)C(N)=O)c2c(OCC(=O)O)cccc21 [ILY-V-24, 2,2′-(1,1′-(8,8′-(Octane-1,8-diylbis(sulfanediyl))bis(octane-8,1-diyl))bis(3-(2-amino-2-oxoacetyl)-2-methyl-1H-indole-4,1-diyl))bis(oxy)diacetic acid]
bioavailability: 4 to 8%
